The target of one assay is T1, Fra a 1E (Fragaria x ananassa, UniProt Q256S2).
T1 construct: gene FRAA1E.1; full-length ORF in pETM11, E. coli BL21(DE3); N-terminal His6 cut by TEV, Ala-Met-Ala left at N-terminus; monomer, 18 kDa by SEC-MALLS; residues 2-160 modelled
The assay is described as follows: isothermal titration calorimetry. It is filed as binding. (In general: Isothermal titration calorimetry measures the heat released or taken up as one component is titrated into another.)

A further assay has as its target T2, Fra a 2 (Fragaria x ananassa, UniProt D0E0C6).
T2 construct: gene FRAA2; full-length ORF in pETM11, E. coli BL21(DE3); N-terminal His6 cut by TEV, Ala-Met-Ala left at N-terminus; apparent 28 kDa by SEC-MALLS
The assay is described as follows: isothermal titration calorimetry. The class given is binding.

In general, Kd refers to a measure of binding affinity in units of concentration. A high value points to a looser complex.

T2 sequence (D0E0C6 whole entry): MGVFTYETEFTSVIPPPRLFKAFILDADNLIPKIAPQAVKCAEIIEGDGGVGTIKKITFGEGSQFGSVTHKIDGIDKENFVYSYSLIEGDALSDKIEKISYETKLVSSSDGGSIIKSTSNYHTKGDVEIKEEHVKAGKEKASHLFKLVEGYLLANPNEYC
T1 sequence (Q256S2 whole entry, the tested form may be a part): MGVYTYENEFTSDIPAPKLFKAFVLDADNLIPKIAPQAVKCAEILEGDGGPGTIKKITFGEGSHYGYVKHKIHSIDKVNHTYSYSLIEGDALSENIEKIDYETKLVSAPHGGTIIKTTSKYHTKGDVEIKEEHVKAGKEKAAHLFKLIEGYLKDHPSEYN

`O=C(O)[C@H]1O[C@@H](Oc2c(-c3ccc(O)c(O)c3)oc3cc(O)cc(O)c3c2=O)[C@H](O)[C@@H](O)[C@@H]1O` [Quercetin-3-O-glucuronide] showed a Kd on Fra a 1E of 5.3 µM.
`O=c1c(O)c(-c2cc(O)c(O)c(O)c2)oc2cc(O)cc(O)c12` [myricetin] showed a Kd on Fra a 2 of 19.5 µM.

Values taken from publication PMC3853281, “The Strawberry Pathogenesis-related 10 (PR-10) Fra a Proteins Control Flavonoid Biosynthesis by Binding to Metabolic Intermediates” (The Journal of Biological Chemistry, 2013).
